Assay [1] has as its system HAP1 MTAP-deleted cell line. Kind of assay: SDMA in-cell western assay, HAP1 MTAP-deleted. The format is cell-based. The settings on record: for IC50: Homo sapiens, HAP1, SDMA in-cell western, HAP1 MTAP-deleted; for MTAP intact/deleted ratio: SDMA in-cell western. In a few lines: (§1)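 MTAP-null vs endogenous-MTAP HAP1 isogenic cells; in-cell western SDMA readout; IC50 per line.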

Assay [2] concerns HAP1 MTAP-intact cell line. Kind of assay: SDMA in-cell western assay, HAP1 MTAP-intact. The format is cell-based. To be noted: Homo sapiens, HAP1, SDMA in-cell western, HAP1 MTAP-intact; read-out: MTAP HAP1 intact IC50. The method, boiled down:
as §1

Assay [3] concerns HAP1 MTAP-deleted cell line. Kind of assay: Viability assay, MTAP-deleted cell line. It counts as cell-based. The settings on record: Homo sapiens, read-out: HAP1 MTAP deleted viability. From the text:
Table 1 additionally indicates IC50 values in a viability assay for the MTAP-deleted cell line (column 10), indicating the effect of treatment with compound on cell survival.

Assay [4] deals with T1, PRMT5 (Homo sapiens, UniProt O14744).
T1 construct: purchased Viva (custom protein)
T1 sequence (O14744 whole entry): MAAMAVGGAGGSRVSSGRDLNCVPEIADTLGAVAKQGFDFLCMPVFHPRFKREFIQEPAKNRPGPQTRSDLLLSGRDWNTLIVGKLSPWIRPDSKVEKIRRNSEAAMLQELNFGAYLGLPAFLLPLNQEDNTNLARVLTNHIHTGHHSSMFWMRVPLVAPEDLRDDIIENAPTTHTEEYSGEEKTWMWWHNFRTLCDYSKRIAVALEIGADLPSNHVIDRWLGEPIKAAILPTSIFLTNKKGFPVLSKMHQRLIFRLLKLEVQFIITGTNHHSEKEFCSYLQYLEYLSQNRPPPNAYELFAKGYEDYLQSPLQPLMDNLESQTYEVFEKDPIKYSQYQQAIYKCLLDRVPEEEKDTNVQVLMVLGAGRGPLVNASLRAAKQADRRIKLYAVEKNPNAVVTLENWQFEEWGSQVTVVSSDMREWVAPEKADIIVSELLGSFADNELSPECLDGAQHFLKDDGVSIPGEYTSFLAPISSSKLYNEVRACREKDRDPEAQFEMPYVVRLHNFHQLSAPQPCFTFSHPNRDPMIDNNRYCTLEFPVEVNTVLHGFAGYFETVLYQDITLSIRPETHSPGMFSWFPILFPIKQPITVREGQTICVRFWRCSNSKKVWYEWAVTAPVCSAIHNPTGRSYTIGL
T1 sequence (Q9BQA1 whole entry partner): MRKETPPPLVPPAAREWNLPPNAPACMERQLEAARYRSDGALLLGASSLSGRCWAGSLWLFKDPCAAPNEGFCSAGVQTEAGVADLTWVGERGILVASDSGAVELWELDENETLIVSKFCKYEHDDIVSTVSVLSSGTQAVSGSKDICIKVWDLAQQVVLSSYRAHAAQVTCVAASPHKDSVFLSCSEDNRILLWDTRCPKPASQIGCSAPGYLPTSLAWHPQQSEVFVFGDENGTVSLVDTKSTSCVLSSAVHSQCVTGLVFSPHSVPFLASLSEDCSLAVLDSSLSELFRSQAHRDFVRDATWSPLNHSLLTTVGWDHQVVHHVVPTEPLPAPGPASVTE
Kind of assay: PRMT5 biochemical IC50 assay with no cofactor. The settings on record: PRMT5, no cofactor. From the text: Table 1 indicates IC50 values (μM) against PRMT5 for exemplary compounds in the presence of SAM as cofactor, with no cofactor, and with MTA as cofactor, respectively (columns 4-6). […] Ki values can be calculated from the IC50 values as described in the Examples section. As detailed in the Examples section, for the assay performed in the presence of SAM, IC50=Ki×1.5 (Ki=IC50/1.5).

For assay [5], the target named is T1, PRMT5. Kind of assay: PRMT5 biochemical IC50 assay with SAM as cofactor. To be noted: PRMT5, SAM as cofactor; read-out: SAM IC50.
Assay [6] addresses T1, PRMT5. Kind of assay: PRMT5 biochemical IC50 assay with MTA as cofactor. The settings on record: PRMT5, MTA as cofactor; read-out: MTA IC50.
[7] abbreviates: read-out: HAP 1 MTAP deleted IC50.
The mark [8] stands for this setting: IC50 ratio HAP1 MTAP-intact / HAP1 MTAP-deleted.
Where [9] appears, read: HAP1, viability assay, MTAP-deleted cell line.
[10] abbreviates: read-out: No Cofactor/ rel IC50.
Where [11] appears, read: HAP1, viability, HAP1 MTAP-deleted cell line.
Where [12] appears, read: read-out: HAP1 MTAP deleted IC50.
Setting [13] is: HAP1, viability assay, HAP1 MTAP-deleted.
Setting [14] is: IC50 ratio HAP1 MTAP-intact vs HAP1 MTAP-deleted.

Molecules are shown by their SMILES. Some results are limits rather than exact numbers.

Consider `C[C@H]1CC[C@H](c2ccc3c(c2)OCCN3)N(C(=O)C(=O)Nc2cncc(C(N)=O)c2)C1` (single isomer, unassigned) [Compound 598], for which the IC50 was below 100 nM in assay [1] (setting [7]); above 1000 nM in assay [2]; below 1000 nM in assay [3] (HAP1, viability IC50, MTAP-deleted cell line); 50 to 500 nM on PRMT5 [4] (read-out: No Cofactor/rel IC50); below 50 nM on PRMT5 [5]; below 50 nM at PRMT5 [6]. Moreover, the MTAP intact/deleted ratio entry in assay [1] (setting [8]) is on record as “A (an IC50 ratio greater than or equal to 10 fold)”.

As to `NC(=O)c1cncc(NC(=O)C(=O)N2CCC3(CC2)OCC2CC23)c1` (centres unmarked) [Compound 149, 5-(2-{3-Oxaspiro[bicyclo[3.1.0]hexane-2,4′-piperidine]-1′-yl}-2-oxoacetamido)pyridine-3-carboxamide], the IC50 is above 1000 nM in assay [1] (setting [7]); above 1000 nM in assay [2]; above 10000 nM in assay [3] (setting [9]); above 500 nM on PRMT5 [4] (setting [10]); 50 to 500 nM at PRMT5 [5]; 50 to 500 nM on PRMT5 [6]. Moreover, the “MTAP intact/deleted ratio” value in assay [1] (setting [8]) was “C (an IC50 ratio of less than 3 fold)”.

Turning to `C[C@H]1CC[C@H](c2ccc3sc(C4CCN(C)CC4)nc3c2)N(C(=O)C(=O)Nc2cncc(C(N)=O)c2)C1` (single isomer, unassigned) [Compound 1255], the IC50 is below 100 nM in assay [1] (setting [7]); below 100 nM in assay [2]; below 1000 nM in assay [3] (setting [11]); below 50 nM on PRMT5 [4] (setting [10]); 50 to 500 nM on PRMT5 [5]; below 50 nM at PRMT5 [6]. For the same molecule, the “MTAP intact/deleted ratio” value in assay [1] (setting [8]) is on record as “A (an IC50 ratio greater than or equal to 10 fold)”.

Consider `CC1Cc2cc([C@@H]3CC[C@@H](C)CN3C(=O)C(=O)Nc3cncc(C(N)=O)c3)ccc2O1` (mixture of isomers) [Compound 151, rac-5-{2-[(2R,5S)-5-Methyl-2-(2-methyl-2,3-dihydro-1-benzofuran-5-yl)piperidin-1-yl]-2-oxoacetamido}pyridine-3-carboxamide], for which the IC50 in assay [1] (setting [7]) is below 100 nM; in assay [2], above 1000 nM; in assay [3] (setting [9]), 1000 to 10000 nM; on PRMT5 [4] (setting [10]), 50 to 500 nM; on PRMT5 [5], 50 to 500 nM; on PRMT5 [6], below 50 nM. Further, in assay [1] (setting [8]), the “MTAP intact/deleted ratio” value is “A (an IC50 ratio greater than or equal to 10 fold)”.

For the molecule `Cc1cc(NC(=O)C(=O)N2C[C@H](C)CC[C@H]2C2CCC(C(C)(C)C)CC2)cnc1N` (mixture of isomers) [Compound 145, rac-N-(6-amino-5-methyl-3-pyridyl)-2-[(2S,5R)-2-(4-tert-butylcyclohexyl)-5-methyl-1-piperidyl]-2-oxo-acetamide], the IC50 is 100 to 1000 nM in assay [1] (setting [7]); above 1000 nM in assay [2]; above 10000 nM in assay [3] (setting [9]); 50 to 500 nM on PRMT5 [4] (setting [10]); 50 to 500 nM at PRMT5 [5]; below 50 nM on PRMT5 [6]. Moreover, the “MTAP intact/deleted ratio” value in assay [1] (setting [8]) is “C (an IC50 ratio of less than 3 fold)”.

Turning to `CC(=O)N[C@H]1CCN(C(=O)C(=O)Nc2cnc(N)c(C)c2)[C@@H](c2ccccc2)C1` (racemic) [Compound 831, 2-[(2R,4S)-4-acetamido-2-phenyl-1-piperidyl]-N-(6-amino-5-methyl-3-pyridyl)-2-oxo-acetamide], the IC50 in assay [1] (setting [12]) is above 1000 nM; in assay [2] it was above 1000 nM; in assay [3] (setting [13]), above 10000 nM; at PRMT5 [4] (read-out: No Cofactor/rel IC50), above 500 nM; at PRMT5 [5] it was above 500 nM; on PRMT5 [6], 50 to 500 nM. Moreover, in assay [1] (setting [8]), the MTAP intact/deleted ratio entry was “B (an IC50 ratio greater than or equal to 3 fold but lower than 10 fold)”.

Turning to `CCc1cc(NC(=O)C(=O)N2C[C@@H](C)CC[C@@H]2c2ccc3sc(N4CCN(C)CC4)nc3c2)cnc1N` [Compound 1244, N-(6-amino-5-ethylpyridin-3-yl)-2-((2R,5S)-5-methyl-2-(2-(4-methylpiperazin-1-yl)benzo[d]thiazol-5-yl)piperidin-1-yl)-2-oxoacetamide], the IC50 in assay [1] (setting [7]) is below 100 nM; in assay [2], below 100 nM; in assay [3] (setting [11]), below 1000 nM; at PRMT5 [4] (setting [10]) it was below 50 nM; at PRMT5 [5], 50 to 500 nM; at PRMT5 [6], below 50 nM. In addition, the “MTAP intact/deleted ratio” value in assay [1] (setting [8]) is given as “A (an IC50 ratio greater than or equal to 10 fold)”.

For `C[C@H]1CC[C@H](c2ccc3c(c2)CNC3=O)N(C(=O)C(=O)Nc2cncc(C(N)=O)c2)C1` (single isomer, unassigned) [Compound 741, 5-(2-(5-methyl-2-(1-oxoisoindolin-5-yl)piperidin-1-yl)-2-oxoacetamido)nicotinamide], the IC50 in assay [1] (setting [12]) was above 1000 nM; in assay [2], above 1000 nM; in assay [3] (setting [13]) it was above 10000 nM; at PRMT5 [4] (read-out: No Cofactor/rel IC50), above 500 nM; at PRMT5 [5], above 500 nM; at PRMT5 [6], above 500 nM. Further, in assay [1] (setting [8]), the MTAP intact/deleted ratio result was “C (an IC50 ratio of less than 3 fold)”.

In the case of `CC(C)c1cc(NC(=O)C(=O)N2C[C@@H](C)CC[C@@H]2c2ccc(F)cc2)cnc1N` [Compound 993, N-(6-amino-5-isopropyl-3-pyridyl)-2-[(2R,5S)-2-(4-fluorophenyl)-5-methyl-1-piperidyl]-2-oxo-acetamide], the IC50 in assay [1] (setting [7]) was 100 to 1000 nM; in assay [2] it was above 1000 nM; in assay [3] (setting [9]), 1000 to 10000 nM; at PRMT5 [4] (read-out: No Cofactor/rel IC50), below 50 nM; at PRMT5 [5], 50 to 500 nM; at PRMT5 [6], below 50 nM. The MTAP intact/deleted ratio result in assay [1] (setting [8]) is “A (an IC50 ratio greater than or equal to 10 fold)”.

In the case of `C[C@@H]1CC[C@@H](c2ccc3sc(C(F)(F)F)nc3c2)N(C(=O)C(=O)Nc2cncc(C(N)=O)c2)C1` (single isomer, unassigned) [Compound 1029], the IC50 was above 1000 nM in assay [1] (setting [7]); above 1000 nM in assay [2]; above 10000 nM in assay [3] (setting [9]); above 500 nM on PRMT5 [4] (read-out: No Cofactor/rel IC50); above 500 nM at PRMT5 [5]; above 500 nM at PRMT5 [6]. In addition, the MTAP intact/deleted ratio result in assay [1] (setting [8]) was “B (an IC50 ratio greater than or equal to 3 fold but lower than 10 fold)”.

Take `CNS(=O)(=O)c1ccc([C@H]2CC[C@H](C)CN2C(=O)C(=O)Nc2cncc(C(N)=O)c2)cc1` (single isomer, unassigned) [Compound 722]: the IC50 is above 1000 nM in assay [1] (setting [12]); above 1000 nM in assay [2]; above 10000 nM in assay [3] (setting [13]); 50 to 500 nM at PRMT5 [4] (read-out: No Cofactor/rel IC50); 50 to 500 nM on PRMT5 [5]; below 50 nM at PRMT5 [6]. In addition, in assay [1] (setting [8]), the MTAP intact/deleted ratio entry is “C (an IC50 ratio of less than 3 fold)”.

For `CCc1cc(NC(=O)C(=O)N2C[C@@H](C)CC[C@@H]2c2ccc(N3CCN(C(C)C)CC3)cc2)cnc1N` (single isomer, unassigned) [Compound 1208], the IC50 was below 100 nM in assay [1] (setting [12]); 100 to 1000 nM in assay [2]; below 1000 nM in assay [3] (setting [9]); below 50 nM on PRMT5 [4] (read-out: No Cofactor/rel IC50); 50 to 500 nM on PRMT5 [5]; below 50 nM at PRMT5 [6]. Also, the MTAP intact/deleted ratio entry in assay [1] (setting [14]) is “A (an IC50 ratio greater than or equal to 10 fold)”.

With `CCc1cc(NC(=O)C(=O)N2C[C@@H](C)CC[C@@H]2c2ccc3sc(-c4nccn4C)nc3c2)cnc1N` [Compound 1192, N-(6-amino-5-ethylpyridin-3-yl)-2-((2R,5S)-5-methyl-2-(2-(1-methyl-1H-imidazol-2-yl)benzo[d]thiazol-5-yl)piperidin-1-yl)-2-oxoacetamide], the IC50 in assay [1] (setting [12]) is below 100 nM; in assay [2], 100 to 1000 nM; in assay [3] (setting [9]), below 1000 nM; on PRMT5 [4] (read-out: No Cofactor/rel IC50), below 50 nM; on PRMT5 [5], 50 to 500 nM; on PRMT5 [6], below 50 nM. Further, in assay [1] (setting [14]), the MTAP intact/deleted ratio entry is listed as “A (an IC50 ratio greater than or equal to 10 fold)”.

`CNc1ccc([C@H]2CC[C@H](C)CN2C(=O)C(=O)Nc2cncc(C(N)=O)c2)cc1` [Compound 438, 5-[[2-[(2R,5S)-5-methyl-2-[4-(methylamino)phenyl]-1-piperidyl]-2-oxo-acetyl]amino]pyridine-3-carboxamide]: the IC50 was below 100 nM in assay [1] (setting [12]); above 1000 nM in assay [2]; below 1000 nM in assay [3] (setting [9]); below 50 nM at PRMT5 [4] (read-out: No Cofactor/rel IC50); below 50 nM at PRMT5 [5]; below 50 nM at PRMT5 [6]. The MTAP intact/deleted ratio entry in assay [1] (setting [8]) is given as “A (an IC50 ratio greater than or equal to 10 fold)”.

(Values after US11999727B2 (Tango Therapeutics, Inc., priority 2020, dated 2024).)
